The values that follow are results of earlier work, collected in patent US7208498B2, “Piperidino pyrimidine dipeptidyl peptidase inhibitors for the treatment of diabetes” (Merck & Co., Inc., priority 2002, dated 2007).

In one data set the test system is cardiac allograft. The following applies: rats; Transplantation 63, 1495–1500 (1997).
A further data set relates to hematopoiesis. Particulars: mouse, cyclophosphamide-induced neutropenia; WO 99/56753.

Molecules are shown by their SMILES.

With `CC(C)N1CCC(c2ccccc2)(c2ccccc2)CC1` [Prodipine, Pro-Pro-diphenyl-phosphonate], the cardiac allograft survival entry in the data set on cardiac allograft was “double cardiac allograft survival in rats from day 7 to day 14”.
In the case of `CC(C)[C@H](N)C(=O)N1CCC[C@H]1B(O)O` [Val-Boro-Pro], the hematopoiesis entry in the data set on hematopoiesis was “stimulated hematopoiesis”.
For `CC[C@H](C)[C@H](N)C(=O)N1CCC[C@H]1C(=O)N[C@H](C(=O)O)[C@@H](C)CC` [diprotin A], the “degradation of GRF in plasma to GRF[3-44]” value with GRF was “prevented”.
